Measurements reported in patent US20230085307A1, “PYRIDAZINONE COMPOUND AND HERBICIDE” (NISSAN CHEMICAL CORPORATION, priority 2019, published 2023).

How the values were obtained:
[1] = system: lambsquarters; test: Test Example 5: herbicidal effect by foliage application, plastic box (Table 20, symbol O); format: in vivo, lambsquarters (Chenopodium album); conditions: amount of applied herbicide 320 g/ha; foliage application after 14-day growth; evaluated three weeks after application
Outline: (§1)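 Post-emergence foliar test in sterilized diluvial soil. Compound applied as water-diluted emulsion at a predetermined rate to 14-day-old plants; evaluation at three weeks.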

[2] = system: rice flat sedge; test: Test Example 3: herbicidal effect by foliage application, Wagner pot (Table 18, symbol E); format: in vivo, rice flat sedge (Cyperus iria); conditions: 320 g/ha
Outline: (§2)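 Plants were sown in alluvial soil held under 0.1–0.5 cm standing water and grown 14 days in a greenhouse at 25–30 °C. An emulsifiable formulation, water-diluted to the set dose, was then sprayed onto the foliage, and effects were scored three weeks later using previously defined criteria.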

[3] = system: Italian ryegrass; test: Test Example 5: herbicidal effect by foliage application, plastic box (Table 20, symbol K); format: in vivo, Italian ryegrass (Lolium multiflorum); conditions: amount of applied herbicide 320 g/ha; foliage application after 14-day growth; evaluated three weeks after application
Outline: as §1

[4] = system: blackgrass; test: Test Example 4: herbicidal effect by soil treatment (Table 19, symbol J); format: in vivo, blackgrass (Alopecurus myosuroides); conditions: amount of applied herbicide 320 g/ha
Outline: (§3)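 Emulsion of test compound, water-diluted to predetermined amount, sprayed on soil after sowing (seed depth ~1.5 cm, sterilized diluvial soil). Greenhouse, 25–30° C. Effect graded at three weeks post-spray.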

[5] = system: lambsquarters; test: Test Example 4: herbicidal effect by soil treatment (Table 19, symbol O); format: in vivo, lambsquarters (Chenopodium album); conditions: amount of applied herbicide 320 g/ha
Outline: as §3

[6] = system: southern crabgrass; test: Test Example 4: herbicidal effect by soil treatment (Table 19, symbol F); format: in vivo, southern crabgrass (Digitaria ciliaris); conditions: amount of applied herbicide 320 g/ha
Outline: as §3

[7] = system: wild oat; test: Test Example 4: herbicidal effect by soil treatment (Table 19, symbol I); format: in vivo, wild oat (Avena fatua); conditions: amount of applied herbicide 320 g/ha
Outline: as §3

[8] = system: Italian ryegrass; test: Test Example 4: herbicidal effect by soil treatment (Table 19, symbol K); format: in vivo, Italian ryegrass (Lolium multiflorum); conditions: amount of applied herbicide 320 g/ha
Outline: as §3

[9] = system: velvetleaf; test: Test Example 5: herbicidal effect by foliage application, plastic box (Table 20, symbol M); format: in vivo, velvetleaf (Abutilon theophrasti); conditions: amount of applied herbicide 320 g/ha; foliage application after 14-day growth; evaluated three weeks after application
Outline: as §1

[10] = system: blackgrass; test: Test Example 5: herbicidal effect by foliage application, plastic box (Table 20, symbol J); format: in vivo, blackgrass (Alopecurus myosuroides); conditions: amount of applied herbicide 320 g/ha; foliage application after 14-day growth; evaluated three weeks after application
Outline: as §1

[11] = system: wild oat; test: Test Example 5: herbicidal effect by foliage application, plastic box (Table 20, symbol I); format: in vivo, wild oat (Avena fatua); conditions: amount of applied herbicide 320 g/ha; foliage application after 14-day growth; evaluated three weeks after application
Outline: as §1

[12] = system: persian speedwell; test: Test Example 4: herbicidal effect by soil treatment (Table 19, symbol R); format: in vivo, Persian speedwell (Veronica persica); conditions: amount of applied herbicide 320 g/ha
Outline: as §3

[13] = system: barnyard grass; test: Test Example 5: herbicidal effect by foliage application, plastic box (Table 20, symbol H); format: in vivo, barnyard grass (Echinochloa crus-galli); conditions: amount of applied herbicide 320 g/ha; foliage application after 14-day growth; evaluated three weeks after application
Outline: as §1

[14] = system: redroot pigweed; test: Test Example 5: herbicidal effect by foliage application, plastic box (Table 20, symbol N); format: in vivo, redroot pigweed (Amaranthus retroflexus); conditions: amount of applied herbicide 320 g/ha; foliage application after 14-day growth; evaluated three weeks after application
Outline: as §1

[15] = system: persian speedwell; test: Test Example 5: herbicidal effect by foliage application, plastic box (Table 20, symbol R); format: in vivo, Persian speedwell (Veronica persica); conditions: amount of applied herbicide 320 g/ha; foliage application after 14-day growth; evaluated three weeks after application
Outline: as §1

[16] = system: southern crabgrass; test: Test Example 5: herbicidal effect by foliage application, plastic box (Table 20, symbol F); format: in vivo, southern crabgrass (Digitaria ciliaris); conditions: amount of applied herbicide 320 g/ha; foliage application after 14-day growth; evaluated three weeks after application
Outline: as §1

[17] = system: barnyard grass; test: Test Example 4: herbicidal effect by soil treatment (Table 19, symbol H); format: in vivo, barnyard grass (Echinochloa crus-galli); conditions: amount of applied herbicide 320 g/ha
Outline: as §3

[18] = system: windgrass; test: Test Example 5: herbicidal effect by foliage application, plastic box (Table 20, symbol L); format: in vivo, windgrass (Apera spica-venti); conditions: amount of applied herbicide 320 g/ha; foliage application after 14-day growth; evaluated three weeks after application
Outline: as §1

[19] = system: redroot pigweed; test: Test Example 4: herbicidal effect by soil treatment (Table 19, symbol N); format: in vivo, redroot pigweed (Amaranthus retroflexus); conditions: amount of applied herbicide 320 g/ha
Outline: as §3

[20] = system: green foxtail; test: Test Example 4: herbicidal effect by soil treatment (Table 19, symbol G); format: in vivo, green foxtail (Setaria viridis); conditions: amount of applied herbicide 320 g/ha
Outline: as §3

[21] = system: chickweed; test: Test Example 5: herbicidal effect by foliage application, plastic box (Table 20, symbol P); format: in vivo, common chickweed (Stellaria media); conditions: amount of applied herbicide 320 g/ha; foliage application after 14-day growth; evaluated three weeks after application
Outline: as §1

[22] = system: windgrass; test: Test Example 4: herbicidal effect by soil treatment (Table 19, symbol L); format: in vivo, windgrass (Apera spica-venti); conditions: amount of applied herbicide 320 g/ha
Outline: as §3

[23] = system: chickweed; test: Test Example 4: herbicidal effect by soil treatment (Table 19, symbol P); format: in vivo, common chickweed (Stellaria media); conditions: amount of applied herbicide 320 g/ha
Outline: as §3

[24] = system: velvetleaf; test: Test Example 4: herbicidal effect by soil treatment (Table 19, symbol M); format: in vivo, velvetleaf (Abutilon theophrasti); conditions: amount of applied herbicide 320 g/ha
Outline: as §3

[25] = system: green foxtail; test: Test Example 5: herbicidal effect by foliage application, plastic box (Table 20, symbol G); format: in vivo, green foxtail (Setaria viridis); conditions: amount of applied herbicide 320 g/ha; foliage application after 14-day growth; evaluated three weeks after application
Outline: as §1

[26] = system: Chinese sprangletop; test: Test Example 3: herbicidal effect by foliage application, Wagner pot (Table 18, symbol D); format: in vivo, chinese sprangletop (Leptochloa chinensis); conditions: 320 g/ha
Outline: as §2

[27] = system: barnyard grass; test: Test Example 3: herbicidal effect by foliage application, Wagner pot (Table 18, symbol H); format: in vivo, barnyard grass (Echinochloa crus-galli); conditions: 320 g/ha
Outline: as §2

Row | Structure (SMILES) | Herbicidal effect by foliage application, O: lambsquarters [1] | herbicidal effect on rice flat sedge (E) [2] | Herbicidal effect by foliage application, K: Italian ryegrass [3] | Herbicidal effect by foliage application, M: velvetleaf [9] | Herbicidal effect by foliage application, J: blackgrass [10] | Herbicidal effect by foliage application, I: wild oat [11] | Herbicidal effect by foliage application, H: barnyard grass [13] | Herbicidal effect by foliage application, N: redroot pigweed [14] | Herbicidal effect by foliage application, R: persian speedwell [15] | Herbicidal effect by foliage application, F: southern crabgrass [16] | Herbicidal effect by foliage application, L: windgrass [18] | Herbicidal effect by foliage application, P: chickweed [21] | Herbicidal effect by foliage application, G: green foxtail [25] | herbicidal effect on Chinese sprangletop (D) [26] | herbicidal effect on barnyard grass (H) [27] | other results
1 | Cc1nn(C)c(=O)c(-c2c(-c3ccc(Br)cc3)sc3c(C)cccc23)c1O [4-104] | 4 (Herbicidal rate of 70% or more and less than 90%) | 0 (Herbicidal rate of 5% or less (almost no effect)) | 4 (Herbicidal rate of 70% or more and less than 90%) | 5 (Herbicidal rate of 90% or more (almost completely withered)) | 0 (Herbicidal rate of 5% or less (almost no effect)) | 0 (Herbicidal rate of 5% or less (almost no effect)) | 0 (Herbicidal rate of 5% or less (almost no effect)) | 5 (Herbicidal rate of 90% or more (almost completely withered)) | 5 (Herbicidal rate of 90% or more (almost completely withered)) | 0 (Herbicidal rate of 5% or less (almost no effect)) | 3 (Herbicidal rate of 40% or more and less than 70%) | 5 (Herbicidal rate of 90% or more (almost completely withered)) | 0 (Herbicidal rate of 5% or less (almost no effect)) | 0 (Herbicidal rate of 5% or less (almost no effect)) | 2 (Herbicidal rate of 20% or more and less than 40%) | Herbicidal effect by soil treatment, J: blackgrass [4]: 0 (Herbicidal rate of 5% or less (almost no effect)); Herbicidal effect by soil treatment, O: lambsquarters [5]: 1 (Herbicidal rate of 5% or more and less than 20%); Herbicidal effect by soil treatment, F: southern crabgrass [6]: 0 (Herbicidal rate of 5% or less (almost no effect)); Herbicidal effect by soil treatment, I: wild oat [7]: 0 (Herbicidal rate of 5% or less (almost no effect)); Herbicidal effect by soil treatment, K: Italian ryegrass [8]: 0 (Herbicidal rate of 5% or less (almost no effect)); Herbicidal effect by soil treatment, R: persian speedwell [12]: 3 (Herbicidal rate of 40% or more and less than 70%); Herbicidal effect by soil treatment, H: barnyard grass [17]: 0 (Herbicidal rate of 5% or less (almost no effect)); Herbicidal effect by soil treatment, N: redroot pigweed [19]: 4 (Herbicidal rate of 70% or more and less than 90%); Herbicidal effect by soil treatment, G: green foxtail [20]: 0 (Herbicidal rate of 5% or less (almost no effect)); Herbicidal effect by soil treatment, L: windgrass [22]: 0 (Herbicidal rate of 5% or less (almost no effect)); Herbicidal effect by soil treatment, P: chickweed [23]: 3 (Herbicidal rate of 40% or more and less than 70%); Herbicidal effect by soil treatment, M: velvetleaf [24]: 2 (Herbicidal rate of 20% or more and less than 40%)
2 | Cc1nn(C)c(=O)c(-c2c(-c3ccc(OC(F)(F)F)cc3)sc3c(C)cccc23)c1O [4-130] | 5 (Herbicidal rate of 90% or more (almost completely withered)) | 4 (Herbicidal rate of 70% or more and less than 90%) | 3 (Herbicidal rate of 40% or more and less than 70%) | 4 (Herbicidal rate of 70% or more and less than 90%) | 3 (Herbicidal rate of 40% or more and less than 70%) | 0 (Herbicidal rate of 5% or less (almost no effect)) | 0 (Herbicidal rate of 5% or less (almost no effect)) | 5 (Herbicidal rate of 90% or more (almost completely withered)) | 5 (Herbicidal rate of 90% or more (almost completely withered)) | 0 (Herbicidal rate of 5% or less (almost no effect)) | 3 (Herbicidal rate of 40% or more and less than 70%) | 5 (Herbicidal rate of 90% or more (almost completely withered)) | 0 (Herbicidal rate of 5% or less (almost no effect)) | 0 (Herbicidal rate of 5% or less (almost no effect)) | 3 (Herbicidal rate of 40% or more and less than 70%) | J: blackgrass, herbicidal effect grade [4]: 0 (Herbicidal rate of 5% or less (almost no effect)); O: lambsquarters, herbicidal effect grade [5]: 1 (Herbicidal rate of 5% or more and less than 20%); F: southern crabgrass, herbicidal effect grade [6]: 0 (Herbicidal rate of 5% or less (almost no effect)); I: wild oat, herbicidal effect grade [7]: 0 (Herbicidal rate of 5% or less (almost no effect)); K: Italian ryegrass, herbicidal effect grade [8]: 0 (Herbicidal rate of 5% or less (almost no effect)); R: persian speedwell, herbicidal effect grade [12]: 4 (Herbicidal rate of 70% or more and less than 90%); H: barnyard grass, herbicidal effect grade [17]: 0 (Herbicidal rate of 5% or less (almost no effect)); N: redroot pigweed, herbicidal effect grade [19]: 5 (Herbicidal rate of 90% or more (almost completely withered)); G: green foxtail, herbicidal effect grade [20]: 0 (Herbicidal rate of 5% or less (almost no effect)); L: windgrass, herbicidal effect grade [22]: 0 (Herbicidal rate of 5% or less (almost no effect)); P: chickweed, herbicidal effect grade [23]: 1 (Herbicidal rate of 5% or more and less than 20%); M: velvetleaf, herbicidal effect grade [24]: 2 (Herbicidal rate of 20% or more and less than 40%)
